How the values were obtained:
brain of ischemic mice = assay: Cerebral ischemia in mice with common carotid artery ligation and reperfusion (brain LDH, SOD); format: in vivo; conditions: 2 mg/kg
Experimental: Experimental grouping: a control group and a model group (respectively administrating an equal volume of normal salt), a positive control group (nimodipine, 2 mg/kg), sample A groups (200, 100, and 50 mg/kg), and sample B groups (200, 100, and 50 mg/kg), the injection dosage being […].
Animal model setup: the grouped mice were respectively administrated test substance, nimodipine or normal salt by tail intravenous injection. After 15 minutes, the mice were anesthetized with 3.5% chloral hydrate, fixed in the back. The right and left common carotid artery and vagus nerve were exposed, and 4-0 suture was inserted under the bilateral carotid arteries. The line was tightened to block blood flow for 5 minutes. Then the line was loosened to make the blood reperfusion for 10 minutes. The operation was repeated three times, and an ischemia-reperfusion model in mice was established. After the last reperfusion, the mice were decapitated and brain collected. In the control group, only the bilateral carotid arteries were exposed, without line being inserted.

decapitated mice [1] = assay: Brain index and brain water content in decapitated mice; format: in vivo, ICR mice; conditions: 2 mg/kg
Experimental: (§1) ICR mice (equally divided between male and female) were divided randomly in a blank control group, a positive control group and dosage groups of sample A (200, 100, and 50 mg/kg) and sample B (400, 200, 100, 50 mg/kg). The mice in medical groups were administrated by tail intravenous injection, and the dosage was […]. The positive control group was administrated nimodipine (2 mg/kg) by tail intravenous injection. The model group was administrated normal salt. At 15 minutes after administration, the mice were decapitated by a pair of scissors. The mouth breathing time, breathing frequency and brain water content were recorded and compared with other groups.
Measurement of brain water content: whole brains were collected, after the wet weight was obtained, they were dried in an oven at 100° C. for 24 hours, the average value was taken to calculate brain water content: brain water content(%)=[…]. Brain index: brain index=brain wet weight (g)/body weight (g)×100%.

decapitated mice [2] = assay: Breathing time and breathing frequency in decapitated mice; format: in vivo, ICR mice; conditions: 2 mg/kg, tail i.v., decapitated 15 minutes after administration
Experimental: as §1

COCCOC(=O)C1=C(C)NC(C)=C(C(=O)OC(C)C)C1c1cccc([N+](=O)[O-])c1 (stereo not drawn) [Nimodipine, nimodipine]
LDH (U/mg) (brain of ischemic mice): 11.3 ± 6.6 U/mg
SOD (U/mg) (brain of ischemic mice): 144.77 ± 21.61 U/mg
Brain index (%) (decapitated mice [1]): 1.40 ± 0.14 %
Brain water content (%) (decapitated mice [1]): 75.1 ± 0.9 %
Breathing frequency (times) (decapitated mice [2]): 17.0 ± 3.2 times
Breathing time (decapitated mice [2]): 23.8 ± 3.2 s
